Source: US20230000876A1, “TREATING CANCERS WITH A CYCLIN-DEPENDENT KINASE INHIBITOR” (Nuvation Bio Inc., priority 2021, published 2023)

Key:
KM12-luc = assay: CellTiter-Glo anti-proliferation assay, KM12-luc; format: cell-based
Method: The anti-proliferation effect of 2 compounds (the compound of formula (I) and temozolomide) in 7 CNS metastasis cell lines (MOLT-4-luc, Nalm-6-luc, NCI-H460-luc, ACHN-luc2, PC-9-luc, H1975-luc, and KM12-luc) was evaluated.
The plating of cells and compound treatments are shown below in the plate map (Table 12). One plate was needed for the test of 2 compounds (the compound of formula (I) and temozolomide) in one cell line. The compound of formula (I) was tested from 10 μM, 3-fold serial dilution. Temozolomide was tested from 100 μM, 3-fold serial dilution.
All the cell lines were maintained in culture conditions at 37° C. in an atmosphere with 5% CO2 in air. The tumor cells were routinely subcultured. The cells growing in an exponential growth phase were harvested and counted for plating.
Cells were counted by haemocytometer with Trypan blue staining. Next, 135 μL of cell suspension were plated into the assay plates according to the plate map and 135 μL of assay medium into the blank wells. The plates were incubated at 37° C., 5% CO2, 95% air and 100% relative humidity overnight.
(§1) 4.4.4 Compound Plate (10×) Preparation and Compound Treatment • 10× concentrate compound plate preparation: Add 198 μL of assay medium into each well of the V-bottom plate; then transfer 2 μL of the stock compound solution of each concentration from the stock plate. Add 2 μL of DMSO into the Blank and Control wells. Pipette up and down to mix well. This V-plate is designated as the 10× concentrate compound plate. • For day 0 plate, add 15 μL of the DMSO-medium into the Control wells. The final DMSO concentration was 0.1%. Then directly proceed to cell viability assay. • For assay plate, add 15 μL of the compound-medium of each well from the 10× concentrate compound plate into the cells in 96-well assay plate according to the plate map. Add 15 μL of the DMSO-medium into the Blank and Control wells. The final DMSO concentration was 0.1%. • Return the assay plate into incubator and incubate for 6 days.
(§2) The procedures were performed according to the Promega CellTiter-Glo Luminescent Cell Viability Assay Kit manual (Promega-G7573). • The CellTiter-Glo buffer was thawed and equilibrated to room temperature prior to use. • CellTiter-Glo Substrate was equilibrated to room temperature prior to use. • The entire liquid volume of CellTiter-Glo Buffer was transferred into the amber bottle containing CellTiter-Glo Substrate to reconstitute the lyophilized enzyme/substrate mixture. This forms the CellTiter-Glo Reagent. • The contents were mixed by gently vortexing to obtain a homogeneous solution. • The plate was equilibrated and its contents to room temperature for approximately 30 minutes. 75 μL (equal to the half volume of culture medium present in each well) CellTiter-Glo • Reagent was added in each well. Plates were covered with aluminum foil to protect from light. • The contents were mixed for 2 minutes on an orbital shaker to induce cell lysis. • The plate was incubated at room temperature for 20 minutes to stabilize luminescent signal. • Record luminescence on the 2104 EnVision plate reader.
(§3) Inhibition rate (IR) of the tested compounds was determined by the following formula: IR (%)=(1−(RLU compound−RLU day0)/(RLU control−RLU day0))*100%. The inhibitions of different dose of compound were calculated in Excel file, and then were used to plot inhibition curves and evaluate related parameters, such as Min (%), Max (%) and GI50. The data were interpreted by GraphPad Prism.

SK-MEL-28 = assay: Cell viability assay, melanoma cell line SK-MEL-28; format: cell-based
Method: as §1
as §2, with “This forms the CellTiter-Glo Reagent. • The contents were mixed by gently vortexing to obtain a homogeneous solution. • The plate was equilibrated and its contents to room temperature for approximately 30 minutes. 75 μL (equal to the half volume of culture medium present in each well) CellTiter-Glo • Reagent was added in each well.” left out
as §3, with “The data were interpreted by GraphPad Prism.” left out

U-118MG xenograft tumors = assay: U-118MG glioma subcutaneous xenograft model; format: in vivo, female CB17 SCID mice; settings: for T/C / TGI / Tumor Size: PG-D27
Method: The tumor cells were routinely subcultured twice weekly. The cells growing in an exponential growth phase were harvested and counted for tumor inoculation.
The treatments was started on day 7 after tumor inoculation when the average tumor volume reached 150 mm^3. 60 mice were selected and assigned into 6 groups. The testing articles were administrated to the mice according to Table 1.
Tumor size was measured twice weekly in two dimensions using a caliper, and the volume was expressed in mm^3 using the formula: V=0.5 a×b^2 where a and b are the long and short diameters of the tumor, respectively. The tumor sizes are then used for the calculation of T/C and TGI values.
The T/C value (in percent) is an indication of antitumor effectiveness; T and C are the mean volume of the treated and control groups, respectively, on a given day.
TGI was calculated for each group using the formula: TGI (%)=[1−(Ti−T0)/(Vi−V0)]×100; Ti is the average tumor volume of a treatment group on PG-D28 T0 is the average tumor volume of the treatment group on the day of treatment start, Vi is the average tumor volume of the vehicle control group on the same day with Ti, and V0 is the average tumor volume of the vehicle group on the day of treatment start.
All Groups were taken down on PG-D28, tumor, plasma and brain samples were collected.
For statistical analysis for difference among groups 2-6 and group 1, a one-way ANOVA was performed. All the analysis were conducted using GraphPad Prism software. p<0.05 was considered to be statistically significant.

[1] = inhibition rate, 6 days, Compound (I) from 10 μM, temozolomide from 100 μM, 3-fold, 9 points
[2] = Group 2: Compound (I) 10 mg/kg PO, QD
[3] = Group 3: Compound (I) 30 mg/kg PO, QD
[4] = Group 4: Compound (I) 60 mg/kg PO, QD
[5] = Group 5: Compound (I) 60 mg/kg PO, QOD

SMILES: CC(C)N1CCOc2c(F)cc(-c3nc(Nc4ccc(C5CCN(C)CC5)cn4)ncc3F)cc21 [Compound (I), 5-fluoro-4-(8-fluoro-4-isopropyl-3,4-dihydro-2H-benzo[b][1,4]oxazin-6-yl)-N-(5-(1-methylpiperidin-4-yl)pyridin-2-yl)pyrimidin-2-amine]
- GI50 (KM12-luc; KM12-Luc, 144 h, 6 days incubation, read-out: Absolute GI50): 654 nM
- Max (%) (KM12-luc; [1]): 111.2%
- Min (%) (KM12-luc; [1]): −15.2%
- GI50 (SK-MEL-28; Homo sapiens, SK-MEL-28, read-out: Absolute GI50): 152 nM
- Max (%) (SK-MEL-28; inhibition rate): 106.21%
- Min (%) (SK-MEL-28; inhibition rate): 1.70%
- Tumor volume (mean ± SEM) (U-118MG xenograft tumors; 10 mg/kg PO QD, day 0): 154 ± 12 mm^3
- Tumor volume (mean ± SEM) (U-118MG xenograft tumors; 10 mg/kg PO QD, day 3): 238 ± 16 mm^3
- Tumor volume (mean ± SEM) (U-118MG xenograft tumors; 10 mg/kg PO QD, day 7): 277 ± 20 mm^3
- Tumor volume (mean ± SEM) (U-118MG xenograft tumors; 10 mg/kg PO QD, day 10): 291 ± 28 mm^3
- Tumor volume (mean ± SEM) (U-118MG xenograft tumors; 10 mg/kg PO QD, day 14): 275 ± 28 mm^3
- Tumor volume (mean ± SEM) (U-118MG xenograft tumors; 10 mg/kg PO QD, day 17): 281 ± 34 mm^3
- Tumor volume (mean ± SEM) (U-118MG xenograft tumors; 10 mg/kg PO QD, day 21): 269 ± 43 mm^3
- Tumor volume (mean ± SEM) (U-118MG xenograft tumors; 10 mg/kg PO QD, day 24): 270 ± 40 mm^3
- Tumor volume (mean ± SEM) (U-118MG xenograft tumors; 10 mg/kg PO QD, day 28): 273 ± 39 mm^3
- Tumor volume (mean ± SEM) (U-118MG xenograft tumors; 30 mg/kg PO QD, day 0): 155 ± 11 mm^3
- Tumor volume (mean ± SEM) (U-118MG xenograft tumors; 30 mg/kg PO QD, day 3): 237 ± 22 mm^3
- Tumor volume (mean ± SEM) (U-118MG xenograft tumors; 30 mg/kg PO QD, day 7): 273 ± 26 mm^3
- Tumor volume (mean ± SEM) (U-118MG xenograft tumors; 30 mg/kg PO QD, day 10): 241 ± 25 mm^3
- Tumor volume (mean ± SEM) (U-118MG xenograft tumors; 30 mg/kg PO QD, day 14): 230 ± 19 mm^3
- Tumor volume (mean ± SEM) (U-118MG xenograft tumors; 30 mg/kg PO QD, day 17): 214 ± 16 mm^3
- Tumor volume (mean ± SEM) (U-118MG xenograft tumors; 30 mg/kg PO QD, day 21): 193 ± 17 mm^3
- Tumor volume (mean ± SEM) (U-118MG xenograft tumors; 30 mg/kg PO QD, day 24): 174 ± 19 mm^3
- Tumor volume (mean ± SEM) (U-118MG xenograft tumors; 30 mg/kg PO QD, day 28): 172 ± 18 mm^3
- Tumor volume (mean ± SEM) (U-118MG xenograft tumors; 60 mg/kg PO QD, day 0): 156 ± 12 mm^3
- Tumor volume (mean ± SEM) (U-118MG xenograft tumors; 60 mg/kg PO QD, day 3): 220 ± 17 mm^3
- Tumor volume (mean ± SEM) (U-118MG xenograft tumors; 60 mg/kg PO QD, day 7): 264 ± 14 mm^3
- Tumor volume (mean ± SEM) (U-118MG xenograft tumors; 60 mg/kg PO QD, day 10): 227 ± 10 mm^3
- Tumor volume (mean ± SEM) (U-118MG xenograft tumors; 60 mg/kg PO QD, day 14): 202 ± 10 mm^3
- Tumor volume (mean ± SEM) (U-118MG xenograft tumors; 60 mg/kg PO QD, day 17): 174 ± 12 mm^3
- Tumor volume (mean ± SEM) (U-118MG xenograft tumors; 60 mg/kg PO QD, day 21): 160 ± 10 mm^3
- Tumor volume (mean ± SEM) (U-118MG xenograft tumors; 60 mg/kg PO QD, day 24): 156 ± 8 mm^3
- Tumor volume (mean ± SEM) (U-118MG xenograft tumors; 60 mg/kg PO QD, day 28): 156 ± 8 mm^3
- Tumor volume (mean ± SEM) (U-118MG xenograft tumors; 60 mg/kg PO QOD, day 0): 154 ± 11 mm^3
- Tumor volume (mean ± SEM) (U-118MG xenograft tumors; 60 mg/kg PO QOD, day 3): 233 ± 20 mm^3
- Tumor volume (mean ± SEM) (U-118MG xenograft tumors; 60 mg/kg PO QOD, day 7): 304 ± 27 mm^3
- Tumor volume (mean ± SEM) (U-118MG xenograft tumors; 60 mg/kg PO QOD, day 10): 273 ± 28 mm^3
- Tumor volume (mean ± SEM) (U-118MG xenograft tumors; 60 mg/kg PO QOD, day 14): 234 ± 22 mm^3
- Tumor volume (mean ± SEM) (U-118MG xenograft tumors; 60 mg/kg PO QOD, day 17): 215 ± 22 mm^3
- Tumor volume (mean ± SEM) (U-118MG xenograft tumors; 60 mg/kg PO QOD, day 21): 193 ± 20 mm^3
- Tumor volume (mean ± SEM) (U-118MG xenograft tumors; 60 mg/kg PO QOD, day 24): 183 ± 21 mm^3
- Tumor volume (mean ± SEM) (U-118MG xenograft tumors; 60 mg/kg PO QOD, day 28): 177 ± 22 mm^3
- T/C (U-118MG xenograft tumors; [2]): 43.20%
- TGI (U-118MG xenograft tumors; [2]): 75.08%
- Tumor Size (U-118MG xenograft tumors; [2]): 273 ± 39 mm^3
- T/C (U-118MG xenograft tumors; [3]): 27.32%
- Tumor Size (U-118MG xenograft tumors; [3]): 172 ± 18 mm^3
- T/C (U-118MG xenograft tumors; [4]): 24.64%
- TGI (U-118MG xenograft tumors; [4]): 100.03%
- Tumor Size (U-118MG xenograft tumors; [4]): 156 ± 8 mm^3
- T/C (U-118MG xenograft tumors; [5]): 28.09%
- TGI (U-118MG xenograft tumors; [5]): 95.14%
- Tumor Size (U-118MG xenograft tumors; [5]): 177 ± 22 mm^3
- Antitumor activity relative to the control group (U-118MG xenograft tumors; mouse, in vivo): dose-dependent and statistically significant antitumor activity
- Effect of 30 mg/kg QD compared with 60 mg/kg QOD (U-118MG xenograft tumors; mouse, in vivo): similar
